# Columns and labels:
# Type in all cases: in vivo
# [1] = test system: Echinochloa crus-galli (L.) Beauv. var. crusgall (Ec); assay: Test for herbicidal effect by upland field soil treatment (Test Example 2), Ec
# Summary of the method: (§1)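 Echinochloa crus-galli and Setaria viridis were sown in upland field soil and covered, then the soil surface was sprayed with water-diluted wettable powder at 100 g active ingredient per 10 ares (100 liters per 10 ares). Plants were grown in a greenhouse and scored on a standard scale on day 21.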
# [2] = test system: Echinochloa oryzicola Vasing. (Eo); assay: Test for herbicidal effect by paddy field soil treatment (Test Example 1); details: application amount (active ingredient) 100 g/10 a, examined at the 21st day from the treatment, index per Table 40
# Summary of the method: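 Eo seeds sown in puddled paddy soil under 3 cm water; next day a water-diluted wettable powder was dropped onto the water surface at 100 g active ingredient per 10 ares. Herbicidal effect scored on a standard scale 21 days after treatment, greenhouse-grown.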
# [3] = test system: Setaria viridis (L.) Beauv. (Se); assay: Test for herbicidal effect by upland field soil treatment (Test Example 2), Se
# Summary of the method: as §1
# [4] = test system: Echinochloa crus-galli (L.) Beauv. var. crusgalli (Ec); assay: Test for herbicidal effect by upland foliage treatment (Test Example 3); details: 100 g/10 a active ingredient, examined at 14th day
# Summary of the method: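 Potted upland-soil Ec seedlings grown 2 weeks in greenhouse, then foliage-sprayed with water-diluted wettable powder at 100 L per 10 ares, giving 100 g active ingredient per 10 ares. Herbicidal effect scored on a graded standard 14 days after treatment.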
# [5] = application amount (active ingredient) 100 g/10 a, examined at the 21st day from the treatment, index per Table 40
# [6] = 100 g/10 a active ingredient, examined at 21st day
Structure (SMILES),"Herbicidal effect to Ec [1, 5]",Herbicidal effect to Eo [2],"Herbicidal effect to Se [3, 5]",Herbicidal effect to Ec [4],"Herbicidal effect to Ec [1, 6]","Herbicidal effect to Se [3, 6]"
O=S(=O)(Cc1c(F)cccc1F)C1=NOC2(CC2)C1 [Compound 1-380],5 (A herbicidal effect or phytotoxicity of 90% or more),5 (A herbicidal effect or phytotoxicity of 90% or more),4 (A herbicidal effect or phytotoxicity of 70% to less than 90%),4 (A herbicidal effect or phytotoxicity of 70% to less than 90%),,
CC1(C)CC(S(=O)(=O)Cc2ccccc2S(C)(=O)=O)=NO1 [Compound 1-106],5 (A herbicidal effect or phytotoxicity of 90% or more),5 (A herbicidal effect or phytotoxicity of 90% or more),5 (A herbicidal effect or phytotoxicity of 90% or more),4 (A herbicidal effect or phytotoxicity of 70% to less than 90%),,
CC1(C)CC(S(=O)(=O)Cc2cc(C(F)(F)F)ccc2C(F)(F)F)=NO1 [Compound 1-544],,5 (A herbicidal effect or phytotoxicity of 90% or more),,5 (A herbicidal effect or phytotoxicity of 90% or more),5 (A herbicidal effect or phytotoxicity of 90% or more),5 (A herbicidal effect or phytotoxicity of 90% or more)
Cc1cccc(CS(=O)(=O)C2=NOC(C)(C)C2)c1 [Compound 1-6],5 (A herbicidal effect or phytotoxicity of 90% or more),5 (A herbicidal effect or phytotoxicity of 90% or more),5 (A herbicidal effect or phytotoxicity of 90% or more),4 (A herbicidal effect or phytotoxicity of 70% to less than 90%),,
CCOc1ccccc1CS(=O)(=O)C1=NOC(C)(C)C1 [Compound 1-43],5 (A herbicidal effect or phytotoxicity of 90% or more),5 (A herbicidal effect or phytotoxicity of 90% or more),5 (A herbicidal effect or phytotoxicity of 90% or more),5 (A herbicidal effect or phytotoxicity of 90% or more),,
CC1(C)CC(S(=O)(=O)Cc2ccc(Cl)c(Cl)c2)=NO1 [Compound 1-491],5 (A herbicidal effect or phytotoxicity of 90% or more),5 (A herbicidal effect or phytotoxicity of 90% or more),5 (A herbicidal effect or phytotoxicity of 90% or more),4 (A herbicidal effect or phytotoxicity of 70% to less than 90%),,
CCC1(CC)CC(S(=O)(=O)Cc2c(F)cccc2F)=NO1 [Compound 1-364],5 (A herbicidal effect or phytotoxicity of 90% or more),5 (A herbicidal effect or phytotoxicity of 90% or more),5 (A herbicidal effect or phytotoxicity of 90% or more),4 (A herbicidal effect or phytotoxicity of 70% to less than 90%),,
COc1cc(CS(=O)(=O)C2=NOC(C)(C)C2)cc(OC)c1 [Compound 1-524],,5 (A herbicidal effect or phytotoxicity of 90% or more),,5 (A herbicidal effect or phytotoxicity of 90% or more),5 (A herbicidal effect or phytotoxicity of 90% or more),5 (A herbicidal effect or phytotoxicity of 90% or more)
COc1cccc(C)c1CS(=O)(=O)C1=NOC(C)(C)C1 [Compound 1-583],,5 (A herbicidal effect or phytotoxicity of 90% or more),,4 (A herbicidal effect or phytotoxicity of 70% to less than 90%),5 (A herbicidal effect or phytotoxicity of 90% or more),5 (A herbicidal effect or phytotoxicity of 90% or more)
Cc1cccc(CS(=O)(=O)C2=NOC(C)(C)C2)c1C [Compound 1-522],,5 (A herbicidal effect or phytotoxicity of 90% or more),,5 (A herbicidal effect or phytotoxicity of 90% or more),5 (A herbicidal effect or phytotoxicity of 90% or more),5 (A herbicidal effect or phytotoxicity of 90% or more)
CC1(C2CC2)CC(S(=O)(=O)Cc2ccccc2OC(F)F)=NO1 (centres unmarked) [Compound 1-562],,5 (A herbicidal effect or phytotoxicity of 90% or more),,4 (A herbicidal effect or phytotoxicity of 70% to less than 90%),5 (A herbicidal effect or phytotoxicity of 90% or more),5 (A herbicidal effect or phytotoxicity of 90% or more)
CC1(C)CC(S(=O)(=O)Cc2c(F)c(F)c(F)c(F)c2F)=NO1 [Compound 1-531],,5 (A herbicidal effect or phytotoxicity of 90% or more),,5 (A herbicidal effect or phytotoxicity of 90% or more),5 (A herbicidal effect or phytotoxicity of 90% or more),5 (A herbicidal effect or phytotoxicity of 90% or more)
CCOc1c(C)cccc1CS(=O)(=O)C1=NOC(C)(C)C1 [Compound 1-186],5 (A herbicidal effect or phytotoxicity of 90% or more),5 (A herbicidal effect or phytotoxicity of 90% or more),5 (A herbicidal effect or phytotoxicity of 90% or more),5 (A herbicidal effect or phytotoxicity of 90% or more),,
Cc1ccccc1CS(=O)(=O)C1=NOC(C)(C)C1 [Compound 1-5],5 (A herbicidal effect or phytotoxicity of 90% or more),5 (A herbicidal effect or phytotoxicity of 90% or more),5 (A herbicidal effect or phytotoxicity of 90% or more),5 (A herbicidal effect or phytotoxicity of 90% or more),,
CC1(C)CC(S(=O)(=O)Cc2ccccc2S(=O)(=O)C(F)(F)F)=NO1 [Compound 1-517],,5 (A herbicidal effect or phytotoxicity of 90% or more),,5 (A herbicidal effect or phytotoxicity of 90% or more),5 (A herbicidal effect or phytotoxicity of 90% or more),5 (A herbicidal effect or phytotoxicity of 90% or more)
CC1(C)CC(S(=O)(=O)Cc2cccc(OC(F)(F)F)c2)=NO1 [Compound 1-59],5 (A herbicidal effect or phytotoxicity of 90% or more),5 (A herbicidal effect or phytotoxicity of 90% or more),5 (A herbicidal effect or phytotoxicity of 90% or more),5 (A herbicidal effect or phytotoxicity of 90% or more),,
COc1ccc([N+](=O)[O-])cc1CS(=O)(=O)C1=NOC(C)(C)C1 [Compound 1-530],,5 (A herbicidal effect or phytotoxicity of 90% or more),,5 (A herbicidal effect or phytotoxicity of 90% or more),5 (A herbicidal effect or phytotoxicity of 90% or more),5 (A herbicidal effect or phytotoxicity of 90% or more)
CC1(C)CC(S(=O)(=O)Cc2ccc(F)cc2Cl)=NO1 [Compound 1-538],,5 (A herbicidal effect or phytotoxicity of 90% or more),,5 (A herbicidal effect or phytotoxicity of 90% or more),5 (A herbicidal effect or phytotoxicity of 90% or more),5 (A herbicidal effect or phytotoxicity of 90% or more)
CC1(C)CC(S(=O)(=O)Cc2ccc(Cl)cc2[N+](=O)[O-])=NO1 [Compound 1-539],,5 (A herbicidal effect or phytotoxicity of 90% or more),,5 (A herbicidal effect or phytotoxicity of 90% or more),5 (A herbicidal effect or phytotoxicity of 90% or more),5 (A herbicidal effect or phytotoxicity of 90% or more)
CC1(C)CC(S(=O)(=O)Cc2cc(Cl)ccc2Cl)=NO1 [Compound 1-489],5 (A herbicidal effect or phytotoxicity of 90% or more),5 (A herbicidal effect or phytotoxicity of 90% or more),5 (A herbicidal effect or phytotoxicity of 90% or more),4 (A herbicidal effect or phytotoxicity of 70% to less than 90%),,

# From patent US6841519B1, “Isoxazoline derivatives and herbicides containing the same as the active ingredient” (Kumiai Chemical Industry Co., Ltd., priority 1999, dated 2005)
